Experimental data reported in ChEMBL document CHEMBL1130909, “General construction pattern of histamine H3-receptor antagonists: change of a paradigm” (Bioorg Med Chem Lett, 1998).

These compounds were tested against Histamine H3 receptor (Rattus norvegicus, UniProt Q9QYN8) (assay: In vitro Histamine H3 receptor antagonist activity in an assay with K+-evoked depolarization-induced release of [3H]histamine from synaptosomes of rat cerebral cortex).
Histamine H3 receptor, sequence (Q9QYN8 whole entry): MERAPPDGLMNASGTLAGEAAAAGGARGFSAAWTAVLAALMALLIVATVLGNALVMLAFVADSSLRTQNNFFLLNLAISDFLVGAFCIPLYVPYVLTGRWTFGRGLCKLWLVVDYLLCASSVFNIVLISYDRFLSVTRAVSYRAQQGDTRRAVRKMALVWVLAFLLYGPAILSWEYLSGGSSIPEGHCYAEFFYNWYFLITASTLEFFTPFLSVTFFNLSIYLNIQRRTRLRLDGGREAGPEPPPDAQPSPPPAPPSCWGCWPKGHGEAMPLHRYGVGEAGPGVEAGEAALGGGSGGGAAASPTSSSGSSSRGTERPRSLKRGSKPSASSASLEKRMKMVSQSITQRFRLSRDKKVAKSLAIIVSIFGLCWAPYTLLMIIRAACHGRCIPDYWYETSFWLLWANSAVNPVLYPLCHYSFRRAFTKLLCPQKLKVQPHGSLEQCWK
Type: functional, subcellular, Brain
`C(=C\CCc1c[nH]cn1)/CCc1ccccc1` showed a Ki of 42 nM. `CCCCCCCCCc1c[nH]cn1` was tested, and the Ki was 400 nM. Compound `CCCCCCC/C=C\c1c[nH]cn1` has a Ki of over 500 nM.
